Results on five compounds are retold here after BindingDB's records for doi:10.1073/pnas.0805677105 (Burnham Institute For Medical Research, 2008).

Some results are limits rather than exact numbers.

Assay [1] addresses T1, Mitogen-activated protein kinase 8 (Homo sapiens, UniProt P45983). Description: DELFIA Assay (Dissociation Enhanced Lanthanide Fluoro-Immuno Assay). Conditions: pH 7.8. As for the experimental part:
Compound was evaluated for its ability to disrupt the interaction of pepJIP1 with JNK1 by using DELFIA assay. DELFIA is a heterogeneous assay whereby a biotin-linked pepJIP1 is adsorbed onto a streptavidin-coated plate followed by incubation with GST-JNK1. […] Controls include unlabeled peptide and blanks receiving no compounds.

Assay [2] deals with T1, Mitogen-activated protein kinase 8. Briefly: In Vitro Kinase Assay (LanthaScreen Kinase Assay). The following applies: pH 7.5; 22 °C.

T1 sequence (P45983 whole entry): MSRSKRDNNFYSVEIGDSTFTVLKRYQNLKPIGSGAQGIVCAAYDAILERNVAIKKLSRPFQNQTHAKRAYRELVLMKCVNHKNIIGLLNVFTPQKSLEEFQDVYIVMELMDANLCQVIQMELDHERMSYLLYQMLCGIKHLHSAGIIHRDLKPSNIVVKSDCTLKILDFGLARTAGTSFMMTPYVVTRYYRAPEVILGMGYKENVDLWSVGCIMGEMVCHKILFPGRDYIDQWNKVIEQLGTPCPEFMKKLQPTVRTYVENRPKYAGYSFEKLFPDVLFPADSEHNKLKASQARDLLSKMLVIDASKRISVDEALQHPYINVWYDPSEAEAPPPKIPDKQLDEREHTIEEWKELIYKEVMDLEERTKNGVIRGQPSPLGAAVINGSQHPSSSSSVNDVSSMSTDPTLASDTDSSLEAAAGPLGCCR

Consider `O=c1[nH]nc(Sc2ccc([N+](=O)[O-])s2)n1-c1ccc2c(c1)OCCO2` [4-(2,3-dihydro-1,4-benzodioxin-6-yl)-5-[(5-nitrothiophen-2-yl)sulfanyl]-4H-1,2,4-triazol-3-ol], for which the figures for the IC50 in assay [1] and in assay [2] were greater than 25 µM and greater than 100 µM, respectively.

For the compound `Cc1nc(Sc2nnnn2-c2ccccc2)sc1C(=O)O` [4-methyl-2-[(1-phenyl-1H-1,2,3,4-tetrazol-5-yl)sulfanyl]-1,3-thiazole-5-carboxylic acid], the IC50 in assay [1] is 7.5 µM; in assay [2], greater than 100 µM.

With `c1ccc(CSc2nnnn2-c2ccccc2)cc1` [5-(benzylsulfanyl)-1-phenyl-1H-1,2,3,4-tetrazole], the IC50 is greater than 25 µM in assay [1] and greater than 100 µM in assay [2].

For the compound `O=c1[nH]nc(Sc2ncc([N+](=O)[O-])s2)n1-c1ccccc1` [5-[(5-nitro-1,3-thiazol-2-yl)sulfanyl]-4-phenyl-4H-1,2,4-triazol-3-ol], the IC50 in assay [1] stood at 0.237 µM; in assay [2], 3.1 µM.

Turning to `O=[N+]([O-])c1cnc(Sc2nnnn2-c2ccccc2)s1` [5-nitro-2-[(1-phenyl-1H-1,2,3,4-tetrazol-5-yl)sulfanyl]-1,3-thiazole], the IC50 in assay [1] was found to be 0.183 µM; in assay [2], 3.3 µM.
